In patent US9896470B2, “Enhancing the stability and purity and increasing the bioavailability of human milk oligosaccharides or precursors or blends thereof” (Glycom A/S, priority 2012, dated 2018):

Experiments:
Assay type in all cases: physicochemical
[1] = Calorimetric (DSC) determination of glass transition temperature of the amorphous samples; conditions: for Tg (glass transition temperature): Perkin Elmer DSC-7, heating rate 10° C./min, spray-dried amorphous sample; for storage temperature limit suggested by Tg: spray-dried amorphous material
Description: The calorimetric experiments to determine the glass transition temperature of the amorphous samples were carried out using Perkin Elmer DSC-7 at a heating rate of 10° C./min; the samples (5-7 mg) were placed in open aluminium crucibles.

[2] = Stability test after two months (40° C., rel. humidity 75%)
Description: 75% of the methanol present in the feed solution was removed. […] Tg: 83.9° C.

[3] = Shelf life of spray-dried material on storage; conditions: below 40° C. storage temperature

Tg (glass transition temperature) [1] [°C] | storage temperature limit suggested by Tg [1] | shelf life [3] | Compound | stability test: changes in analytical data and powder X-ray diagram [2]
81.6 | around 60 °C | excellent shelf life | CC(=O)N[C@H]1[C@H](O[C@H]2[C@@H](O)[C@@H](CO)O[C@@H](O[C@H]3[C@H](O)[C@@H](O)C(O)O[C@@H]3CO)[C@@H]2O)O[C@H](CO)[C@@H](O[C@@H]2O[C@H](CO)[C@H](O)[C@H](O)[C@H]2O)[C@@H]1O (mixture of isomers) [spray-dried LNnT, Lacto-N-neotetraose] | no changes in the analytical data and powder X-ray diagram
83.9 | around 60 °C | excellent shelf life | C[C@@H]1OC(O[C@H]2[C@H](O[C@H]3[C@H](O)[C@@H](O)C(O)O[C@@H]3CO)O[C@H](CO)[C@H](O)[C@@H]2O)[C@@H](O)[C@H](O)[C@@H]1O (some centres unmarked) [spray-dried 2′-FL, 2′-O-fucosyllactose] | no changes in the analytical data and powder X-ray diagram
84.0 | around 60 °C | excellent shelf life | CC(=O)N[C@H]1[C@H]([C@H](O)[C@H](O)CO)O[C@@](OC[C@H]2O[C@@H](O[C@H]3[C@H](O)[C@@H](O)[C@H](O)O[C@@H]3CO)[C@H](O)[C@@H](O)[C@H]2O)(C(=O)O)C[C@@H]1O [spray-dried 6′-SL, 6′-O-sialyllactose] | –
